Test results from patent US20070149508A1, “Six membered heteroaromatic inhibitors targeting resistant kinase mutations” (TargeGen, Inc., priority 2005, published 2007).
Structures can show the parent of a compound that is named as a salt.

Columns and labels:
Abl (T315I) = biological target: T1, Abl (T315I) (Homo sapiens, UniProt P00519, T315I); test: Abl (T315I) Kinase Assay (KinaseGlo luminescent detection of residual ATP); assay type: biochemical; conditions: Abl (T315I) IC50 (nM), Abl (T315I) (Upstate, 17 ng/well), Abltide 100 uM, ATP 500 nM, 60 minutes at 37° C.
T1 construct: purchased Upstate
Procedure: The assay was performed similarly to the Abl kinase assay. Abl (T315I) (Upstate, 17 ng/well); Abltide substrate (100 uM) and ATP (500 nM) comprised the reaction mixture. Compound was similarly diluted, and the reaction plate was incubated for 60 minutes at 37° C.

Abl kinase = Abl kinase (Homo sapiens, UniProt P00519); test: biochemical; conditions: Abl IC50 (nM), Abl kinase (Invitrogen, 20 ng/well), Abltide 100 μM, ATP 500 nM, 37° C. for 60 minutes, top concentration 10 uM

Compound | IC50 (Abl (T315I)) | IC50 (Abl kinase)
Nc1nc2cc(/C=C/c3cnc(Nc4ccc(S(=O)(=O)C5CCNCC5)cc4)nc3)ccc2s1 [5-((E)-2-(2-(4-(piperidin-4-ylsulfonyl)phenylamino)pyrimidin-5-yl)vinyl)benzo[d]thiazol-2-amine Hydrochloride] | 416 nM | 101 nM
O=S(=O)(c1ccc(Nc2ncc(/C=C/c3cc(C(F)(F)F)cc4[nH]cnc34)cn2)cc1)C1CCNCC1 [5-((E)-2-(6-(trifluoromethyl)-1H-benzo[d]imidazol-4-yl)vinyl)-N-(4-(piperidin-4-ylsulfonyl)phenyl)pyrimidin-2-amine.] | 666 nM | 245 nM
Nc1cccc(/C=C/c2cnc(Nc3ccc(S(=O)(=O)C4CCNCC4)cc3)nc2)n1 [5-((E)-2-(6-aminopyridin-2-yl)vinyl)-N-(4-(piperidin-4-ylsulfonyl)phenyl)pyrimidin-2-amine Hydrochloride] | 1210 nM | 56 nM
O=S(=O)(c1ccc(Nc2ncc(/C=C/c3cccc(-c4ncc[nH]4)c3)cn2)cc1)C1CCNCC1 [5-((E)-3-(1H-imidazol-2-yl)styryl))-N-(4-(piperidin-4-ylsulfonyl)phenyl)pyrimidin-2-amine] | 2720 nM | 159 nM
O=S(=O)(c1ccc(Nc2ncc(/C=C/c3ccc(-c4nnn[nH]4)cc3)cn2)cc1)C1CCNCC1 [5-((E)-4-(1H-tetrazol-5-ylsulfonyl)phenyl)pyrimidin-yl)styryl)-N-(4-(piperidin-4-2-amine hydrochloride] | 4180 nM | 3260 nM
O=S(=O)(c1ccc(Nc2ncc(/C=C/c3ccc(-c4ncc[nH]4)cc3)cn2)cc1)C1CCNCC1 [5-((E)-(4-(1H-imidazol-2-yl)styryl))-N-(4-(piperidin-4-ylsulfonyl)phenyl)pyrimidin-2-amine hydrochloride] | 1290 nM | 374 nM
O=S(=O)(CCCN1CCCC1)c1ccc(Nc2ncc(/C=C/c3cccc4[nH]ccc34)cn2)cc1 [5-[(E)-2-(1H-indol-4-pyrrolidin-1-ylpropyl)sulfonyl]phenyl}pyrimidin-2-amine] | 386 nM | 13 nM
O=S(=O)(c1ccc(Nc2ncc(/C=C/c3cccc4[nH]ccc34)cn2)cc1N1CCNCC1)N1CCNCC1 [5-[(E)-2-(1H-indol-4-yl)vinyl]-N-[3-piperazin-1-yl-4-(piperazin-1-ylsulfonyl)phenyl]pyrimidin-2-amine trifluoroacetic acid salt] | 885 nM | 84 nM
C(=C\c1cccc2[nH]ccc12)/c1cnc(Nc2ccc(OC3CCNCC3)cc2)nc1 [5-[(E)-2-(1H-indol-4-yl)vinyl]-N-[4-(piperidin-4-yloxy)phenyl]pyrimidin-2-amine trifluoroacetic acid salt] | 820 nM | 21 nM
O=S(=O)(c1cccc(Nc2ncc(/C=C/c3cccc4[nH]ccc34)cn2)c1)N1CCNCC1 [5-[(E)-2-(1H-indol-4-yl)vinyl]-N-{3-(piperazin-1-ylsulfonyl)phenyl]pyrimidin-2-amine] | ~10000 nM | 244 nM
CN1CCN(S(=O)(=O)c2cccc(Nc3ncc(/C=C/c4cccc5[nH]ccc45)cn3)c2)CC1 [5-[(E)-2-(1H-indol-4-yl)vinyl]-N-{3-[(4-methylpiperazin-1-yl)sulfonyl]phenyl}pyrimidin-2-amine] | ~10000 nM | 784 nM
O=S(=O)(c1ccc(Nc2ncc(/C=C/c3cccc4[nH]ccc34)cn2)cc1)N1CCNCC1 [5-[(E)-2-(1H-indol-4-yl)vinyl]-N-{4-(piperazin-1-ylsulfonyl)phenyl]pyrimidin-2-amine] | 450 nM | 22 nM
CN1CCN(C(=O)c2ccc(Nc3ncc(/C=C/c4cccc5[nH]ccc45)cn3)cc2)CC1 [5-[(E)-2-(1H-indol-4-yl)vinyl]-N-{4-[(4-methylpiperazin-1-yl)carbonyl]phenyl}pyrimidin-2-amine] | 852 nM | 41 nM
Nc1nc2ccc(/C=C/c3cnc(Nc4ccc(SCCN5CCOCC5)cc4)nc3)cc2s1 [6-(2-{2-[4-(2-Morpholin-4-yl-ethylsulfanyl)-phenylamino]-pyrimidin-5-yl}-vinyl)-benzothiazol-2-ylamine] | 1200 nM | 630 nM
Nc1nc2ccc(/C=C/c3cnc(Nc4ccc(CCCN5CCCC5)cc4)nc3)cc2s1 [6-[(E)-2-(2-{[4-(3-pyrrolidin-1-ylpropyl)phenyl]amino}pyrimidin-5-yl)vinyl]-1,3-benzothiazol-2-amine] | 9450 nM | 5150 nM
Nc1nc2ccc(/C=C/c3cnc(Nc4ccc(S(=O)(=O)N5CCNCC5)c(C(F)(F)F)c4)nc3)cc2s1 [6-[(E)-2-(2-{[4-(piperazin-1-ylsulfonyl)-3-(trifluoromethyl)phenyl]amino)pyrimidin-5-yl)vinyl]-1,3-benzothiazol-2-amine] | 2100 nM | 1020 nM

More lines, now with the values ahead:

IC50 (Abl (T315I)) | IC50 (Abl kinase) | Compound
29 nM | 1.5 nM | O=S(=O)(c1ccc(Nc2ncc(/C=C/c3cccc4[nH]ncc34)cn2)cc1)C1CCNCC1 [5-((E)-2-(1H-indazol-4-ylsulfonyl)phenyl)pyrimidin-yl)vinyl)-N-(4-(piperidin-4-2-amine trifluoroacetic acid salt]
154 nM | 6.3 nM | O=S(=O)(c1ccc(Nc2ncc(/C=C/c3cccc4[nH]ccc34)cn2)cc1)C1CCNCC1 [5-((E)-2-(1H-indol-4-yl)vinyl)-N-(4-(piperidin-4-2-amine]
70 nM | 130 nM | O=S(=O)(c1ccc(Nc2ncc(/C=C/c3cc(C(F)(F)F)cc4[nH]nnc34)cn2)cc1)C1CCNCC1 [5-((E)-2-(6-(trifluoromethyl)-1H-benzo[d][1,2,3]triazol-4-yl)vinyl)-N-(4-(piperidin-4-ylsulfonyl)phenyl)pyrimidin-2-amine]
12 nM | 7.2 nM | O=S(=O)(c1ccc(Nc2ncc(/C=C/c3cc(F)cc4[nH]nnc34)cn2)cc1)C1CCNCC1 [5-((E)-2-(6-fluoro-1H-benzo[d][1,2,3]triazol-4-yl)vinyl)-N-(4-(piperidin-4-ylsulfonyl)phenyl)pyrimidin-2-amine trifluoroacetate]
156 nM | 15 nM | O=S(=O)(c1ccc(Nc2ncc(/C=C/c3ccc(Cl)c4[nH]ccc34)cn2)cc1)C1CCNCC1 [5-((E)-2-(7-chloro-1H-indol-4-yl)vinyl)-N-(4-(piperidin-ylsulfonyl)phenyl)pyrimidin-2-amine Hydrochloride]
149 nM | 8 nM | O=S(=O)(c1ccc(Nc2ncc(/C=C/c3ccc(F)c4[nH]ccc34)cn2)cc1)C1CCNCC1 [5-((E)-2-(7-fluoro-1H-indol-4-yl)vinyl)-N-(4-(piperidin-ylsulfonyl)phenyl)pyrimidin-2-amine Hydrochloride]
167 nM | 58 nM | Cc1ccc(/C=C/c2cnc(Nc3ccc(S(=O)(=O)C4CCNCC4)cc3)nc2)c2cc[nH]c12 [5-((E)-2-(7-methyl-1H-indol-4-yl)vinyl)-N-(4-(piperidin-ylsulfonyl)phenyl)pyrimidin-2-amine Hydrochloride]
336 nM | 20 nM | O=S(=O)(c1ccc(Nc2ncc(/C=C/c3cccc4[nH]ncc34)cn2)cc1N1CCNCC1)N1CCNCC1 [5-[(E)-2-(1H-indazol-4-yl)vinyl]-N-[3-piperazin-1-yl-4-piperazin-1-ylsulfonyl)phenyl]pyrimidin-2-amine]
169 nM | 7.9 nM | C(=C\c1cccc2[nH]ncc12)/c1cnc(Nc2ccc(OC3CCNCC3)cc2)nc1 [5-[(E)-2-(1H-indazol-4-yl)vinyl]-N-[4-(piperidin-4-yloxy)phenyl]pyrimidin-2-amine trifluoroacetic acid salt]
124 nM | 3.9 nM | O=S(=O)(CCCN1CCCC1)c1ccc(Nc2ncc(/C=C/c3cccc4[nH]ncc34)cn2)cc1 [5-[(E)-2-(1H-indazol-4-yl)vinyl]-N-{4-[(3-pyrrolidin-1-ylpropyl)sulfonyl]phenyl}pyrimidin-2-amine]
283 nM | 272 nM | Nc1nc2ccc(/C=C/c3cnc(Nc4ccc([S+]([O-])CCN5CCOCC5)cc4)nc3)cc2s1 (stereo not shown) [6-(2-{2-[4-(2-Morpholin-4-yl-ethanesulfinyl)-phenylamino]-pyrimidin-5-yl}-vinyl)-benzothiazol-2-ylamine]
14 nM | 27 nM | Nc1nc2ccc(/C=C/c3cnc(Nc4ccc(S(=O)(=O)C5CCCNCC5)cc4)nc3)cc2s1 (stereo not shown) [6-(2-{2-[4-(Azepane-4-sulfonyl)-phenylamino]-pyrimidin-5-yl}-vinyl)-benzothiazol-2-ylamine]
76 nM | 169 nM | Nc1nc2ccc(/C=C/c3cnc(Nc4ccc(S(=O)(=O)CC5CCNCC5)cc4)nc3)cc2s1 [6-(2-{2-[4-(Piperidin-4-ylmethanesulfonyl)-phenylamino]-pyrimidin-5-yl}-vinyl)-benzothiazol-2-ylamine]
380 nM | 1150 nM | COCCN1CCN(S(=O)(=O)c2ccc(Nc3ncc(/C=C/c4ccc5nc(N)sc5c4)cn3)cc2)CC1 [6-[2-(2-{4-[4-(2-Methoxy-ethyl)-piperazine-1-sulfonyl]-phenylamino}-pyrimidin-5-yl)-vinyl]-benzothiazol-2-ylamine]
94 nM | 100 nM | Nc1nc2ccc(/C=C/c3cnc(Nc4ccc(S(=O)(=O)N5CCNCC5)c(F)c4)nc3)cc2s1 [6-[(E)-2-(2-{[3-fluoro-4-ylsulfonyl)phenyl]amino}pyrimidin-5-yl)vinyl]-1,3-benzothiazol-2-amine]
152 nM | 318 nM | Nc1nc2ccc(/C=C/c3cnc(Nc4ccc(S(=O)(=O)N5CCNCC5)c(N5CCNCC5)c4)nc3)cc2s1 [6-[(E)-2-(2-{[3-piperazin-1-yl-4-(piperazin-1-ylsulfonyl)phenyl]amino}pyrimidin-5-yl)vinyl]-1,3-benzothiazol-2-amine]
